According to patent publication US9150632B2 (Indiana University Research and Technology Corporation, priority 2009, dated 2015):
Like-named read-outs stand apart in the source and are kept apart here. Positions of bridges follow the written chain, without caps; N, C: chain ends. Residues, ends and D or L forms follow the SMILES beside them.

What was measured:
glucagon receptor = target: T1, glucagon receptor (Homo sapiens, UniProt P47871); test: Functional assay-cAMP synthesis, luciferase reporter in HEK293 cells, glucagon receptor; format: cell-based; parameters: % activity: concentration or dose not given beside the values; conditions: for % Activity of Glucagon: Table 21, relative to the native peptide; for Glucagon Receptor Relative Potency: Table 11
T1 construct: expressed in transfected cells; host or cells: HEK293

GLP-1 receptor = GLP-1 receptor (Homo sapiens, UniProt P43220); conditions: for % Activity of GLP-1: Table 21, relative to the native peptide; for GLP-1 Receptor Relative Potency: Table 11
[1] = Table 18, relative to the native hormone of the indicated receptor

Sequence of GLP-1 receptor (P43220 24-463, species assumed): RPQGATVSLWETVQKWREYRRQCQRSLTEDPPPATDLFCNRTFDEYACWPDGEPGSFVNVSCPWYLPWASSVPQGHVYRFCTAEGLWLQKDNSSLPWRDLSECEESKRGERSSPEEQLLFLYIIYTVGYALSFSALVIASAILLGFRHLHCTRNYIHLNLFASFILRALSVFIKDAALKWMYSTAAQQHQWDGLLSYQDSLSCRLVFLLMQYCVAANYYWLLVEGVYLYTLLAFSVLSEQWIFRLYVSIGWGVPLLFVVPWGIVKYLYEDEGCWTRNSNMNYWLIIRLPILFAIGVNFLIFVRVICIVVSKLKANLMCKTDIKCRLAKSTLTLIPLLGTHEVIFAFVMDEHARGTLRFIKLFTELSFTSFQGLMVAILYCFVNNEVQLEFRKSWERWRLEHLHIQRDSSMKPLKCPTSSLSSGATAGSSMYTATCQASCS
T1 sequence (P47871 26-477): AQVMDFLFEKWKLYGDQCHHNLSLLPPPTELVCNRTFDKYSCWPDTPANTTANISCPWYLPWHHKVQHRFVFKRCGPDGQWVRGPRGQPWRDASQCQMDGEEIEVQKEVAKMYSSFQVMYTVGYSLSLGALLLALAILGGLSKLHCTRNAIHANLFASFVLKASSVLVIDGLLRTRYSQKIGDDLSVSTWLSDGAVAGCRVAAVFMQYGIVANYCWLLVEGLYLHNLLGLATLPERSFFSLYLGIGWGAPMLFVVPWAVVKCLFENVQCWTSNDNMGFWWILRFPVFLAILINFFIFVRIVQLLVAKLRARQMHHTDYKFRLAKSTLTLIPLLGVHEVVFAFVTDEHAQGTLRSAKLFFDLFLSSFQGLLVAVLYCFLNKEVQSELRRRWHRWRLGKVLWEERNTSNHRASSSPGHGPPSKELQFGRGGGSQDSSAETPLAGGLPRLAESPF

| Compound | % Activity of Glucagon (glucagon receptor) | % Activity of GLP-1 (GLP-1 receptor) | GLP-1 Receptor Relative Potency (GLP-1 receptor) | other results |
| --- | --- | --- | --- | --- |
| CSCC[C@H](NC(=O)[C@H](CC(C)C)NC(=O)[C@H](Cc1c[nH]c2ccccc12)NC(=O)[C@H](CCC(N)=O)NC(=O)[C@@H](NC(=O)[C@H](Cc1ccccc1)NC(=O)[C@H](CC(=O)O)NC(=O)[C@H](CCCCN)NC(=O)[C@H](C)NC(=O)[C@H](CCCNC(=N)N)NC(=O)[C@H](CCCNC(=N)N)NC(=O)[C@H](CCC(=O)O)NC(=O)[C@H](CC(=O)O)NC(=O)[C@H](CC(C)C)NC(=O)[C@H](Cc1ccc(O)cc1)NC(=O)[C@H](CCCCN)NC(=O)[C@H](CO)NC(=O)[C@H](Cc1ccc(O)cc1)NC(=O)[C@H](CC(=O)O)NC(=O)[C@H](CO)NC(=O)[C@@H](NC(=O)[C@H](Cc1ccccc1)NC(=O)[C@@H](NC(=O)CNC(=O)[C@H](CCC(N)=O)NC(=O)[C@H](CO)NC(=O)[C@@H](N)Cc1c[nH]cn1)[C@@H](C)O)[C@@H](C)O)C(C)C)C(=O)N[C@@H](CC(N)=O)C(=O)N[C@H](C(N)=O)[C@@H](C)O [E16, K20 Gluc-NH2] |  |  |  | Percent Potency Relative to Native Ligand GRec (glucagon receptor; Table 5): 130.1%; Percent Potency Relative to Native Ligand GRec (glucagon receptor; Table 9): 130.1%; Percent Potency Relative to Native Ligand GLP-1Rec (GLP-1 receptor; Table 5): 41.5%; Percent Potency Relative to Native Ligand GLP-1Rec (GLP-1 receptor; Table 9): 41.5% |
| CC[C@H](C)[C@H](NC(=O)[C@H](Cc1ccccc1)NC(=O)[C@H](CCC(=O)O)NC(=O)[C@H](CCCCN)NC(=O)[C@H](C)NC(=O)[C@H](C)NC(=O)[C@H](CCC(N)=O)NC(=O)CNC(=O)[C@H](CCC(=O)O)NC(=O)[C@H](CC(C)C)NC(=O)[C@H](Cc1ccc(O)cc1)NC(=O)[C@H](CO)NC(=O)[C@H](CO)NC(=O)[C@@H](NC(=O)[C@H](CC(=O)O)NC(=O)[C@H](CO)NC(=O)[C@@H](NC(=O)[C@H](Cc1ccccc1)NC(=O)[C@@H](NC(=O)CNC(=O)[C@H](CCC(=O)O)NC(=O)[C@H](C)NC(=O)[C@@H](N)Cc1c[nH]cn1)[C@@H](C)O)[C@@H](C)O)C(C)C)C(=O)N[C@@H](C)C(=O)N[C@@H](Cc1c[nH]c2ccccc12)C(=O)N[C@@H](CC(C)C)C(=O)N[C@H](C(=O)N[C@@H](CCCCN)C(=O)NCC(=O)NCC(N)=O)C(C)C [GLP-1-VKGG^30 (SEQ ID NO: 527), HAEGTFTSDVSSYLEGQAAKEFIAW LVKGGa, reference compound] |  |  | 100% |  |
| CSCC[C@H](NC(=O)[C@H](CC(C)C)NC(=O)[C@H](Cc1c[nH]c2ccccc12)NC(=O)[C@H](CCC(N)=O)NC(=O)[C@@H](NC(=O)[C@H](Cc1ccccc1)NC(=O)[C@H](CC(=O)O)NC(=O)[C@H](CCC(N)=O)NC(=O)[C@H](C)NC(=O)[C@H](CCCNC(=N)N)NC(=O)[C@H](CCCNC(=N)N)NC(=O)[C@H](CO)NC(=O)[C@H](CC(=O)O)NC(=O)[C@H](CC(C)C)NC(=O)[C@H](Cc1ccc(O)cc1)NC(=O)[C@H](CCCCN)NC(=O)[C@H](CO)NC(=O)[C@H](Cc1ccc(O)cc1)NC(=O)[C@H](CC(=O)O)NC(=O)[C@H](CO)NC(=O)[C@@H](NC(=O)[C@H](Cc1ccccc1)NC(=O)[C@@H](NC(=O)CNC(=O)[C@H](CCC(N)=O)NC(=O)[C@H](CO)NC(=O)[C@@H](N)Cc1c[nH]cn1)[C@@H](C)O)[C@@H](C)O)C(C)C)C(=O)N[C@@H](CCCCN)C(=O)NCC(=O)NCC(=O)N1CCC[C@H]1C(=O)N[C@@H](CO)C(=O)N[C@@H](CO)C(=O)NCC(=O)N[C@@H](C)C(=O)N1CCC[C@H]1C(=O)N1CCC[C@H]1C(=O)N1CCC[C@H]1C(=O)N[C@@H](CO)C(N)=O [MKGG^30 PSSGAPPPS (SEQ ID NO: 523)] |  |  | 3% | Glucagon Receptor Relative Potency (glucagon receptor): 14% |
| CSCC[C@H](NC(=O)[C@H](CC(C)C)NC(=O)[C@H](Cc1c[nH]c2ccccc12)NC(=O)[C@H](CCC(N)=O)NC(=O)[C@@H](NC(=O)[C@H](Cc1ccccc1)NC(=O)[C@H](CC(=O)O)NC(=O)[C@H](CCC(N)=O)NC(=O)[C@H](C)NC(=O)[C@H](CCCNC(=N)N)NC(=O)[C@H](CCCNC(=N)N)NC(=O)[C@H](CO)NC(=O)[C@H](CC(=O)O)NC(=O)[C@H](CC(C)C)NC(=O)[C@H](Cc1ccc(O)cc1)NC(=O)[C@H](CCCCN)NC(=O)[C@H](CO)NC(=O)[C@H](Cc1ccc(O)cc1)NC(=O)[C@H](CC(=O)O)NC(=O)[C@H](CO)NC(=O)[C@@H](NC(=O)[C@H](Cc1ccccc1)NC(=O)[C@@H](NC(=O)CNC(=O)[C@H](CCC(N)=O)NC(=O)[C@H](CO)NC(=O)[C@@H](N)Cc1c[nH]cn1)[C@@H](C)O)[C@@H](C)O)C(C)C)C(=O)N[C@@H](CC(N)=O)C(=O)NCC(=O)NCC(=O)N1CCC[C@H]1C(=O)N[C@@H](CO)C(=O)N[C@@H](CO)C(=O)NCC(=O)N[C@@H](C)C(=O)N1CCC[C@H]1C(=O)N1CCC[C@H]1C(=O)N1CCC[C@H]1C(=O)N[C@@H](CO)C(N)=O [MNGG^30 PSSGAPPPS (SEQ ID NO: 522)] |  |  | 8% | Glucagon Receptor Relative Potency (glucagon receptor): 30% |
| CSCC[C@H](NC(=O)[C@H](CC(C)C)NC(=O)[C@H](Cc1c[nH]c2ccccc12)NC(=O)[C@H](CC(N)=O)NC(=O)[C@@H](NC(=O)[C@H](Cc1ccccc1)NC(=O)[C@H](CCC(=O)O)NC(=O)[C@@H]1CCCCNC(=O)CC[C@H](NC(=O)[C@H](CC(=O)O)NC(=O)[C@H](CC(C)C)NC(=O)[C@H](Cc2ccc(O)cc2)NC(=O)[C@H](CCCCN)NC(=O)[C@H](CO)NC(=O)[C@H](Cc2ccc(O)cc2)NC(=O)[C@H](CC(=O)O)NC(=O)[C@H](CO)NC(=O)[C@@H](NC(=O)[C@H](Cc2ccccc2)NC(=O)[C@@H](NC(=O)CNC(=O)[C@H](CCC(N)=O)NC(=O)[C@H](CO)NC(=O)[C@@H](N)Cc2ccc(O)cc2)[C@@H](C)O)[C@@H](C)O)C(=O)N[C@@H](CCC(N)=O)C(=O)N[C@@H](C)C(=O)N[C@@H](C)C(=O)N1)C(C)C)C(=O)N[C@@H](CC(N)=O)C(=O)NCC(=O)NCC(=O)N1CCC[C@H]1C(=O)N[C@@H](CO)C(=O)N[C@@H](CO)C(=O)NCC(=O)N[C@@H](C)C(=O)N1CCC[C@H]1C(=O)N1CCC[C@H]1C(=O)N1CCC[C@H]1C(=O)N[C@@H](CO)C(N)=O [SEQ ID NO: 555] (H-YSQGTFTSDYSKYLDEQAAKEFVNWLMNGGPSSGAPPPS-NH2; lactam 16-20; N-terminus assumed) |  |  |  | Relative Activity, Glucagon receptor (glucagon receptor; [1]): 343.18%; Relative Activity, GLP-1 receptor (GLP-1 receptor; [1]): 100.00% |
| CSCC[C@H](NC(=O)[C@H](CC(C)C)NC(=O)[C@H](Cc1c[nH]c2ccccc12)NC(=O)[C@H](C)NC(=O)[C@@H](NC(=O)[C@H](Cc1ccccc1)NC(=O)[C@H](CC(=O)O)NC(=O)[C@H](C)NC(=O)[C@H](C)NC(=O)[C@H](CCCNC(=N)N)NC(=O)[C@H](CCCNC(=N)N)NC(=O)C(C)(C)NC(=O)[C@H](CC(=O)O)NC(=O)[C@H](CC(C)C)NC(=O)[C@H](Cc1ccc(O)cc1)NC(=O)[C@H](CCCCN)NC(=O)[C@H](CO)NC(=O)[C@H](Cc1ccc(O)cc1)NC(=O)[C@H](CC(=O)O)NC(=O)[C@H](CO)NC(=O)[C@@H](NC(=O)[C@H](Cc1ccccc1)NC(=O)[C@@H](NC(=O)CNC(=O)[C@H](CCNC(C)=O)NC(=O)[C@H](CO)NC(=O)[C@@H](N)Cc1c[nH]cn1)[C@@H](C)O)[C@@H](C)O)C(C)C)C(=O)N[C@@H](CC(=O)O)C(=O)N[C@@H](CCC(=O)O)C(=O)O [SEQ ID NO: 601] |  |  |  | % activity (glucagon receptor; Table 26, glucagon receptor): 86% |

Continued, in another order:

| % Activity of Glucagon (glucagon receptor) | % Activity of GLP-1 (GLP-1 receptor) | Compound | GLP-1 Receptor Relative Potency (GLP-1 receptor) | other results |
| --- | --- | --- | --- | --- |
| 77.3% | 33.3% | CCCCCCCCCCCCCC(=O)NCCCC[C@H](NC(=O)[C@H](CC(=O)O)NC(=O)[C@H](CO)NC(=O)[C@@H](NC(=O)[C@H](Cc1ccccc1)NC(=O)[C@@H](NC(=O)CNC(=O)[C@H](CCC(N)=O)NC(=O)C(C)(C)NC(=O)[C@@H](N)Cc1c[nH]cn1)[C@@H](C)O)[C@@H](C)O)C(=O)N[C@@H](CO)C(=O)N[C@@H](CCCCN)C(=O)N[C@@H](Cc1ccc(O)cc1)C(=O)N[C@@H](CC(C)C)C(=O)N[C@@H](CC(=O)O)C(=O)NC(C)(C)C(=O)N[C@@H](CCCNC(=N)N)C(=O)N[C@@H](CCCNC(=N)N)C(=O)N[C@@H](C)C(=O)N[C@@H](CCC(N)=O)C(=O)N[C@@H](CC(=O)O)C(=O)N[C@@H](Cc1ccccc1)C(=O)N[C@H](C(=O)N[C@@H](CCC(N)=O)C(=O)N[C@@H](Cc1c[nH]c2ccccc12)C(=O)N[C@@H](CC(C)C)C(=O)N[C@@H](CCSC)C(=O)N[C@@H](CC(N)=O)C(=O)N[C@H](C(N)=O)[C@@H](C)O)C(C)C [AIB2, AIB16, K10(C14) Gluc Amide] |  |  |
| 170% | 72.3% | CCCCCCCCCCCCCCCC(=O)NCCCC[C@H](NC(=O)[C@H](CC(=O)O)NC(=O)[C@H](CO)NC(=O)[C@@H](NC(=O)[C@H](Cc1ccccc1)NC(=O)[C@@H](NC(=O)CNC(=O)[C@H](CCC(N)=O)NC(=O)C(C)(C)NC(=O)[C@@H](N)Cc1c[nH]cn1)[C@@H](C)O)[C@@H](C)O)C(=O)N[C@@H](CO)C(=O)N[C@@H](CCCCN)C(=O)N[C@@H](Cc1ccc(O)cc1)C(=O)N[C@@H](CC(C)C)C(=O)N[C@@H](CC(=O)O)C(=O)NC(C)(C)C(=O)N[C@@H](CCCNC(=N)N)C(=O)N[C@@H](CCCNC(=N)N)C(=O)N[C@@H](C)C(=O)N[C@@H](CCC(N)=O)C(=O)N[C@@H](CC(=O)O)C(=O)N[C@@H](Cc1ccccc1)C(=O)N[C@H](C(=O)N[C@@H](CCC(N)=O)C(=O)N[C@@H](Cc1c[nH]c2ccccc12)C(=O)N[C@@H](CC(C)C)C(=O)N[C@@H](CCSC)C(=O)N[C@@H](CC(N)=O)C(=O)N[C@H](C(N)=O)[C@@H](C)O)C(C)C [AIB2, AIB16, K10(C16) Gluc Amide] |  |  |
| 212.5% | 88.9% | CCCCCCCCCCCCCCCCCC(=O)NCCCC[C@H](NC(=O)[C@H](CC(=O)O)NC(=O)[C@H](CO)NC(=O)[C@@H](NC(=O)[C@H](Cc1ccccc1)NC(=O)[C@@H](NC(=O)CNC(=O)[C@H](CCC(N)=O)NC(=O)C(C)(C)NC(=O)[C@@H](N)Cc1c[nH]cn1)[C@@H](C)O)[C@@H](C)O)C(=O)N[C@@H](CO)C(=O)N[C@@H](CCCCN)C(=O)N[C@@H](Cc1ccc(O)cc1)C(=O)N[C@@H](CC(C)C)C(=O)N[C@@H](CC(=O)O)C(=O)NC(C)(C)C(=O)N[C@@H](CCCNC(=N)N)C(=O)N[C@@H](CCCNC(=N)N)C(=O)N[C@@H](C)C(=O)N[C@@H](CCC(N)=O)C(=O)N[C@@H](CC(=O)O)C(=O)N[C@@H](Cc1ccccc1)C(=O)N[C@H](C(=O)N[C@@H](CCC(N)=O)C(=O)N[C@@H](Cc1c[nH]c2ccccc12)C(=O)N[C@@H](CC(C)C)C(=O)N[C@@H](CCSC)C(=O)N[C@@H](CC(N)=O)C(=O)N[C@H](C(N)=O)[C@@H](C)O)C(C)C [AIB2, AIB16, K10(C18) Gluc Amide] |  |  |
